Source: patent US20110245242A1, “Heterocyclically Substituted Anilinopyrimides” (Bayer CropScience AG, priority 2008, published 2011)

test: log P by LC-MS, method [b], acid range pH 2.7; format: physicochemical; settings: pH 2.7
Procedure: The log P values were measured in accordance with EEC Directive 79/831 Annex V.A8 by HPLC (High Performance Liquid Chromatography) on reversed-phase columns (C 18) using the methods below:
[b] The LC-MS determination in the acid range was carried out at pH 2.7 using the mobile phases 0.1% aqueous formic acid and acetonitrile (contains 0.1% formic acid)
linear gradient from 10% acetonitrile to 95% acetonitrile.

| log p | SMILES |
| --- | --- |
| 2.81[b] | CC(C)[C@H]1COC(=O)N1c1cccc(Nc2ncc(Cl)c(NCC(F)(F)F)n2)c1 [Example 111] |
| 1.61[b] | COCC(C)Nc1nc(Nc2ccc(N3C(=O)OCC3C)cc2)ncc1Br (stereo not shown) [Example 4] |
| 1.92[b] | O=C1N(CCCl)CCN1c1cccc(Nc2ncc(Br)c(NC3CC3)n2)c1 [Example 285] |
| 1.82[b] | O=C1N(CCCl)CCN1c1cccc(Nc2ncc(Cl)c(NC3CC3)n2)c1 [Example 286] |
| 1.54[b] | COCC(C)Nc1nc(Nc2ccc(N3C(=O)OCC3C)cc2)ncc1Cl (stereo not shown) [Example 3] |
| 1.68[b] | CC1CC(=O)N(c2cccc(Nc3ncc(Cl)c(NCC(F)F)n3)c2)C1=O (stereo not shown) [Example 161] |
| 1.78[b] | CC1COC(=O)N1c1ccc(Nc2ncc(Br)c(NCC(F)F)n2)cc1 (stereo not shown) [Example 165] |
| 1.51[b] | O=C1COCCN1c1cccc(Nc2ncc(Br)c(NCC(F)F)n2)c1 [Example 166] |
| 1.63[b] | O=C1OCCN1c1cccc(Nc2ncc(Cl)c(NCC(F)F)n2)c1 [Example 154] |
| 2.18[b] | CC1(C)CN(c2cccc(Nc3ncc(Br)c(NC4CC4)n3)c2)C1=O [Example 52] |
| 1.99[b] | COCC(C)Nc1nc(Nc2cccc(N3CCCC3=O)c2)ncc1C#N (stereo not shown) [Example 24] |
| 1.67[b] | CC1CC1Nc1nc(Nc2cccc(N3CCOC3=O)c2)ncc1Cl (stereo not shown) [Example 205] |
| 2.06[b] | CC1COC(=O)N1c1ccc(Nc2ncc(Cl)c(NCC(F)(F)F)n2)cc1 (stereo not shown) [Example 172] |
| 1.67[b] | O=C1CCCN1c1cccc(Nc2ncc(Cl)c(N3CCCC3)n2)c1 [Example 222] |
| 2.41[b] | O=C1CCCN1c1cc(Nc2ncc(C(F)(F)F)c(NCC3CC3)n2)ccc1F [Example 201] |
| 2.3[b] | O=C1OCC(c2ccccc2)N1c1cccc(Nc2ncc(Br)c(NC3CC3)n2)c1 (stereo not shown) [Example 91] |
| 1.63[b] | CN(c1cccc(N2CCCC2=O)c1)c1ncc(Cl)c(NC2CCC2)n1 [Example 83] |
| 1.92[b] | O=C1CCCN1c1cccc(Nc2ncc(Cl)c(NC3CCCC3)n2)c1 [Example 42] |
| 2.65[b] | O=C1OCC(c2ccccc2)N1c1cccc(Nc2ncc(Cl)c(NC3CCC3)n2)c1 (stereo not shown) [Example 89] |
| 2.75[b] | CCC1CCC(=O)N1c1cccc(Nc2ncc(C(F)(F)F)c(NC3CC3)n2)c1 (stereo not shown) [Example 255] |

| log p | SMILES |
| --- | --- |
| 2[b] | CC1CC(Nc2nc(Nc3cccc(N4CCN(C)C4=O)c3)ncc2Br)C1 (stereo not shown) [Example 290] |
| 1.41[b] | CC(C)Nc1nc(Nc2cccc(N3CCOCC3=O)c2)ncc1Cl [Example 143] |
| 2.5[b] | CC(C)C1COC(=O)N1c1cccc(Nc2ncc(Br)c(NCC(F)F)n2)c1 (stereo not shown) [Example 130] |
| 2.24[b] | CC(C)Nc1nc(Nc2cccc(N3C(=O)OCC3C(C)C)c2)ncc1Br (stereo not shown) [Example 129] |
| 1.46[b] | CC(C)Nc1nc(Nc2cccc(N3CCCCC3=O)c2)ncc1Cl [Example 114] |
| 2.17[b] | CC1CC(Nc2nc(Nc3cccc(N4C(=O)CCC4C)c3)ncc2Br)C1 (stereo not shown) [Example 317] |
| 1.54[b] | COCC(C)Nc1nc(Nc2cccc(N3CCOC3=O)c2)ncc1Cl (stereo not shown) [Example 67] |
| 2.51[b] | CC1CC(C)N(c2cccc(Nc3ncc(Cl)c(NCC(F)(F)F)n3)c2)C1=O (stereo not shown) [Example 171] |
| 2.02[b] | CC1(C)CC(=O)N(c2cccc(Nc3ncc(Br)c(NCC4CC4)n3)c2)C1=O [Example 132] |
| 3.56[b] | CN(c1nc(Nc2cccc(N3CCCC3=O)c2)ncc1C(F)(F)F)C1CCCC1 [Example 319] |
| 2.48[b] | CC(CF)Nc1nc(Nc2cccc(N3CCCC3=O)c2)ncc1C(F)(F)F (stereo not shown) [Example 298] |
| 2.36[b] | CC1(C)CC(=O)N(c2cccc(Nc3ncc(Cl)c(NCC(F)(F)F)n3)c2)C1=O [Example 170] |
| 3.29[b] | O=C1CCCN1c1cccc(Nc2ncc(C(F)(F)F)c(N3CCCCC3)n2)c1 [Example 320] |
| 1.57[b] | CC(C)Nc1nc(Nc2cccc(N3CCCCC3=O)c2)ncc1Br [Example 134] |
| 1.73[b] | O=C1COCCN1c1cccc(Nc2ncc(Cl)c(NCC(F)(F)F)n2)c1 [Example 173] |
| 1.71[b] | O=c1ccccn1-c1cccc(Nc2ncc(Br)c(NC3CCC3)n2)c1 [Example 221] |
| 2.8[b] | O=C1OCC(c2ccccc2)N1c1cccc(Nc2ncc(Br)c(NC3CCC3)n2)c1 (stereo not shown) [Example 90] |
| 1.64[b] | CC1COC(=O)N1c1cccc(Nc2ncc(Cl)c(NCC3CC3)n2)c1 (stereo not shown) [Example 116] |
| 2.38[b] | CC(C)[C@@H]1COC(=O)N1c1cccc(Nc2ncc(Cl)c(NC3CCC3)n2)c1 [Example 101] |
| 1.68[b] | CC1COC(=O)N1c1ccc(Nc2ncc(Cl)c(NCC(F)F)n2)cc1 (stereo not shown) [Example 158] |

| SMILES | log p |
| --- | --- |
| CC1(C)CC(=O)N(c2cccc(Nc3ncc(C(F)(F)F)c(NC4CCC4)n3)c2)C1=O [Example 192] | 3.03[b] |
| CC1COC(=O)N1c1cccc(Nc2ncc(Cl)c(N(C)C3CC3)n2)c1 (stereo not shown) [Example 176] | 2.29[b] |
| CC(C)Nc1nc(Nc2cccc(N3C(=O)OCC3C)c2)ncc1Br (stereo not shown) [Example 147] | 1.73[b] |
| CC1COC(=O)N1c1ccc(Nc2ncc(Cl)c(N(C)C3CC3)n2)cc1 (stereo not shown) [Example 179] | 2.16[b] |
| C[C@H]1COC(=O)N1c1cccc(Nc2ncc(Br)c(NC3CC3)n2)c1 [Example 95] | 1.65[b] |
| CC(C)Nc1nc(Nc2cccc(N3C(=O)CC(C)C3=O)c2)ncc1Cl (stereo not shown) [Example 145] | 1.59[b] |
| CC1CCC(=O)N1c1cccc(Nc2ncc(Cl)c(N(C)C3CC3)n2)c1 (stereo not shown) [Example 180] | 2.26[b] |
| COCC(C)Nc1nc(Nc2cccc(N3C(=O)CC(C)C3=O)c2)ncc1Cl (stereo not shown) [Example 68] | 1.59[b] |
| CC1CC(=O)N(c2cccc(Nc3ncc(Br)c(NC4CC4)n3)c2)C1=O (stereo not shown) [Example 66] | 1.78[b] |
| CC1(C)CC(=O)N(c2cccc(Nc3ncc(Br)c(NCC(F)F)n3)c2)C1=O [Example 164] | 2.08[b] |
| CC1CC(=O)N(c2cccc(Nc3ncc(Cl)c(NC4CCC4)n3)c2)C1 (stereo not shown) [Example 97] | 2.02[b] |
| CC(C)[C@@H]1COC(=O)N1c1cccc(Nc2ncc(Cl)c(NC3CC3)n2)c1 [Example 75] | 2.39[b] |
| CC1CC(=O)N(c2cccc(Nc3ncc(Cl)c(N(C)C4CC4)n3)c2)C1=O (stereo not shown) [Example 182] | 2.21[b] |
| COCC(C)Nc1nc(Nc2cccc(N3CCCC3=O)c2)ncc1Br (stereo not shown) [Example 5] | 1.6[b] |
| CC(C)Nc1nc(Nc2cccc(N3C(=O)CC(C)(C)C3=O)c2)ncc1Br [Example 148] | 1.93[b] |
| CN1CCN(c2cccc(Nc3ncc(I)c(NC4CC4)n3)c2)C1=O [Example 296] | 1.57[b] |
| O=C1CCCN1c1cccc(Nc2ncc(C(F)(F)F)c(NC3CCCC3)n2)c1 [Example 303] | 3.04[b] |
| CC1CC(C)N(c2cccc(Nc3ncc(Cl)c(NC4CCC4)n3)c2)C1=O (stereo not shown) [Example 80] | 2.2[b] |
| CC1(C)CC(=O)N(c2cccc(Nc3ncc(Cl)c(NCC(F)F)n3)c2)C1=O [Example 156] | 2.01[b] |
| C[C@H]1COC(=O)N1c1cccc(Nc2ncc(Cl)c(NC3CCC3)n2)c1 [Example 93] | 1.82[b] |
| CN1CCN(c2cccc(Nc3ncc(C(F)(F)F)c(NC4CC4)n3)c2)C1=O [Example 293] | 2.22[b] |
